Reference: patent US5888978A, “Method for reducing the severity of gastro-intestinal damage” (Trega Biosciences, Inc., priority 1995, dated 1999)

Tested on: indomethacin treated rats
Assay: indomethacin-induced GI damage in rats (diarrhea and survival)
Type: in vivo, Harlan Sprague-Dawley rats
Settings: Ind-CRA-1 group
Method: As disclosed herein, administration of a CRA reduced the severity of GI damage in indomethacin treated rats. The effect of indomethacin administration on GI damage to rats is a well recognized model for studying the efficacy of agents that can affect GI damage (see, for example, Perkins et al., J. Pharmacol. Expt. Ther. 269:151-156 (1994)). In the model system used in the experiments described in Example I, the appearance of diarrhea and animal survival were determined following administration of indomethacin, alone, or with concurrent treatment using a cytokine regulatory agent.
The CRA, Ac-Nle-Gln-His-(D)Phe-Arg-(D)Trp-Gly-NH2 (CRA-1), was prepared as described (U.S. Pat. No. 5,420,109, supra, 1995). Adult male Harlan Sprague-Dawley rats (325-425 g) were divided into four groups (6 rats/group). Rats were weighed every morning and food was removed prior to receiving any treatment. Two groups of rats were pretreated by intraperitoneal (ip) injection of sterile saline, alone ("control"), and the remaining two groups were pretreated by ip injection of CRA-1 (100 μg/kg in saline). Pretreatment injections were administered between 8:00-9:00 am.
One hr following the pretreatment, one group of control rats was injected ip, on the side opposite the initial injection, with saline (Sal-control) and the other control group was injected with indomethacin (Ind-control; 10 mg/kg in saline, adjusted to pH 7.5-8.5 with NaOH). Similarly, the two groups of CRA-1 treated rats received either saline (Sal-CRA-1) or indomethacin (Ind-CRA-1). At 8 hr and 16 hr after the pretreatment, control rats and CRA-1 rats were administered saline or CRA-1, respectively. Food was returned to the rats after the 8 hr injection. This protocol was repeated for 7 days.

## CCCC[C@H](NC(C)=O)C(=O)N[C@@H](CCC(N)=O)C(=O)N[C@@H](Cc1c[nH]cn1)C(=O)N[C@H](Cc1ccccc1)C(=O)N[C@@H](CCCNC(=N)N)C(=O)N[C@H](Cc1c[nH]c2ccccc12)C(=O)NCC(N)=O [CRA-1, Ac-Nle-Gln-His-(D)Phe-Arg-(D)Trp-Gly-NH2]
2 of the surviving 5 rats, CRA-1 100 μg/kg ip plus indomethacin 10 mg/kg ip, all 3 surviving Ind-saline rats had diarrhea
  surviving rats with diarrhea by day 7: 40%
3/5, CRA-1 100 μg/kg ip plus indomethacin 10 mg/kg ip
  surviving rats with diarrhea by day 8: 60%
5/6, CRA-1 100 μg/kg ip plus indomethacin 10 mg/kg ip, Ind-saline control 66.7% lethality
  survival by day 8: 83.3%
6 rats, CRA-1 100 μg/kg ip (pretreatment, 8 hr and 16 hr) plus indomethacin 10 mg/kg ip daily, Ind-saline control 5 of 6 (83.3%)
  rats with diarrhea at day 4: none
CRA-1 100 μg/kg ip plus indomethacin 10 mg/kg ip daily for 7 days, Ind-saline control 3 of 6 died
  rats that had died by day 7: 1 of the 6
